Test results from patent US9493466B2, “Treatment of cancer with TOR kinase inhibitors” (Signal Pharmaceuticals, LLC, priority 2011, dated 2016).

Key:
[1] = Storage stability of compound-spotted plates (repeat testing in A549); format: physicochemical; settings: DMSO-spotted sealed 384-well plates at −20° C.
Protocol: Compound 1 was dissolved in dimethyl sulfoxide (DMSO) to prepare a 10 mM stock solution. A serial titration was performed to produce a working concentration range of […] to 10 mM. Aliquots to produce final concentrations of 1.5 nM to 10 μM were spotted via an acoustic dispenser (EDC ATS-100) into an empty 384-well plate. Compound 1 was spotted in a 10-point serial dilution fashion (3-fold dilution) in duplicate within the plate. The DMSO concentration was kept constant for a final assay concentration of 0.1% DMSO. Plates were replicated for use with different cell lines and testing periods. […] When ready for testing, plates were removed from the freezer, thawed, and unsealed just prior to the addition of the test cells. […] At the time when compound was added (t0), initial cell number was assessed via a viability assay (Cell Titer-Glo) by quantifying the level of luminescence generated by ATP present in viable cells. After 96 hours, cell viability of compound-treated cells was assessed via Cell Titer-Glo and luminescence measurement. […] The compound response against this control cell line was monitored closely to enable comparison of the data generated through the assay period. […] Results were then expressed as a GI50 value. […] In addition, the IC50 value of Compound 1 for each cell line was calculated.

HT = test: Growth inhibition assay for NHL lines; format: cell-based; settings: NHL DLBCL, 96 hours, n ≧ 3
Protocol: (§1) Growth Inhibition Assay for HCC and NHL Lines. The seeding density for each cell line was optimized to ensure assay linearity in 384-well plates.
(§2) Compound 1 was dissolved in dimethyl sulfoxide (DMSO) to prepare a 10 mM stock solution. A serial titration was performed to produce a working concentration range of […] to 10 mM. Aliquots to produce final concentrations of 1.5 nM to 10 μM were spotted via an acoustic dispenser (EDC ATS-100) into an empty 384-well plate. Compound 1 was spotted in a 10-point serial dilution fashion (3-fold dilution) in duplicate within the plate. The DMSO concentration was kept constant for a final assay concentration of 0.1% DMSO. Plates were replicated for use with different cell lines and testing periods. After compound plate replication, all plates were sealed (Agilent ThermoLoc) and stored at −20° C. for up to 1 month. […] When ready for testing, plates were removed from the freezer, thawed, and unsealed just prior to the addition of the test cells. Prior to testing, cells were grown and expanded in culture flasks to provide sufficient amounts of starting material. Cells were then diluted to the appropriate densities and added directly to the compound-spotted 384-well plates. Cells were allowed to grow for 96 hours at 37° C./5% CO2. At the time when compound was added (t0), initial cell number was assessed via a viability assay (Cell Titer-Glo) by quantifying the level of luminescence generated by ATP present in viable cells. After 96 hours, cell viability of compound-treated cells was assessed via Cell Titer-Glo and luminescence measurement. Cell lines were assayed for growth inhibition by Compound 1 in at least 3 independent tests. A control cell line (the lung tumor cell line, A549) was included in each of the assays. The compound response against this control cell line was monitored closely to enable comparison of the data generated through the assay period. All data were normalized and presented as a percentage of the DMSO-treated cells. Results were then expressed as a GI50 value. The GI50 value corrects for the cell count at time zero. In addition, the IC50 value of Compound 1 for each cell line was calculated.

WSU-DLCL2 = test: Growth inhibition assay for NHL lines; format: cell-based; settings: WSU-DLCL2, NHL DLBCL, 96 hours, n ≧ 3
Protocol: as §1, §2

MOLM-13 = test: Growth inhibition assay for NHL lines; format: cell-based; settings: MOLM-13, Leukemia M-AML, 96 hours, n ≧ 3
Protocol: as §1, §2

OCI-LY-3 = test: Growth inhibition assay for NHL lines; format: cell-based; settings: OCI-LY-3, NHL DLBCL, 96 hours, n ≧ 3
Protocol: as §1, §2

U-2932 = test: Growth inhibition assay for NHL lines; format: cell-based; settings: U-2932, NHL DLBCL, 96 hours, n ≧ 3
Protocol: as §1, §2

RC-K8 = test: Growth inhibition assay for NHL lines; format: cell-based; settings: RC-K8, NHL DLBCL, 96 hours, n ≧ 3
Protocol: as §1, §2

SU-DHL-6 = test: Growth inhibition assay for NHL lines; format: cell-based; settings: SU-DHL-6, NHL DLBCL, 96 hours, n ≧ 3
Protocol: as §1, §2

THP-1 = test: Growth inhibition assay for NHL lines; format: cell-based; settings: THP-1, Leukemia M-AML, 96 hours, n ≧ 3
Protocol: as §1, §2

JEKO-1 = test: Growth inhibition assay for NHL lines; format: cell-based; settings: JEKO-1, NHL MCL, 96 hours, n ≧ 3
Protocol: as §1, §2

KARPAS-422 = test: Growth inhibition assay for NHL lines; format: cell-based; settings: KARPAS-422, NHL DLBCL, 96 hours, n ≧ 3
Protocol: as §1, §2

WSU-FSCCL = test: Growth inhibition assay for NHL lines; format: cell-based; settings: NHL FL, 96 hours, n ≧ 3
Protocol: as §1, §2

Q: What does the source list for `CO[C@H]1CC[C@H](N2C(=O)CNc3ncc(-c4ccc(C(C)(C)O)nc4)nc32)CC1` [Compound 1, 7-(6-(2-hydroxypropan-2-yl)pyridin-3-yl)-1-((1r,4r)-4-methoxycyclohexyl)-3,4-dihydropyrazino-[2,3-b]pyrazin-2(1H)-one]?
A: stable under the storage conditions [1]: at least 1 month; GI50 (HT): 0.11 ± 0.04 µM; IC50 (HT): 0.17 ± 0.05 µM; GI50 (WSU-DLCL2): 0.09 ± 0.02 µM; IC50 (WSU-DLCL2): 0.09 ± 0.02 µM; GI50 (MOLM-13): 0.11 ± 0.02 µM; IC50 (MOLM-13): 0.14 ± 0.02 µM; GI50 (OCI-LY-3): 0.21 ± 0.06 µM; IC50 (OCI-LY-3): 0.29 ± 0.07 µM; GI50 (U-2932): 0.3 ± 0.03 µM; IC50 (U-2932): 0.45 ± 0.01 µM; GI50 (RC-K8): 0.08 ± 0.01 µM; IC50 (RC-K8): 0.15 ± 0.03 µM; GI50 (SU-DHL-6): 0.16 ± 0.04 µM; IC50 (SU-DHL-6): 0.2 ± 0.06 µM; GI50 (THP-1): 0.23 ± 0.11 µM; IC50 (THP-1): 0.57 ± 0.16 µM; GI50 (JEKO-1): 0.07 ± 0.04 µM; IC50 (JEKO-1): 0.1 ± 0.05 µM; GI50 (KARPAS-422): 0.02 ± 0.01 µM; IC50 (KARPAS-422): 0.02 ± 0.01 µM; GI50 (WSU-FSCCL): 0.16 ± 0.04 µM; IC50 (WSU-FSCCL): 0.19 ± 0.04 µM
